Source: patent US11116771B2, “G protein-coupled receptor (GPCR) modulation by imipridones” (Oncoceutics, Inc., priority 2016, dated 2021)
In brackets after ≈: the same amount, converted by molar mass. Entries after “also recorded” stand apart in the source; their conditions may differ. Read-outs that look alike come from different tables or passages of the source.

Tests used:
[1] = test system: Staphylococcus aureus ATCC 700699; test: MIC by micro-broth dilution, S. aureus ATCC 700699; type: cell-based; conditions: Staphylococcus aureus, ATCC700699, ATCC 700699 (48 hours); for MIC90: read-out: MIC90; for MIC99: read-out: MIC99
HFF (Normal Fibroblast) = test: Cell viability, HFF normal fibroblasts
[2] = test system: Ewing's sarcoma cell lines; test: Anti-cancer efficacy in Ewing's sarcoma cell lines; type: cell-based; conditions: 16 Ewing's sarcoma cell lines (FIG. 20)
[3] = test system: DRD2 (short and long isoforms); test: β-arrestin recruitment GPCR reporter assay, DRD2; type: cell-based
[4] = test system: MHH-ES-1 (Ewing's sarcoma); test: Cell viability, MHH-ES-1; type: cell-based; conditions: Homo sapiens, 5 nM-5 μM, 72 h, n=3
[5] = test system: NCI60 cancer cell line panel; test: NCI60 cancer cell line panel; type: cell-based; conditions: NCI60 panel (FIG. 16)
MOLM14 AML cells = test: Cell viability, MOLM14 AML cells; type: cell-based
[6] = Rat non-GLP oral single dose study; type: in vivo
[7] = test system: Staphylococcus aureus ATCC 29213; test: MIC by micro-broth dilution, S. aureus ATCC 29213; type: cell-based; conditions: ATCC29213; for MIC90: read-out: MIC90; for MIC99: read-out: MIC99
MV411 AML cells = test: Cell viability, MV411 AML cells; type: cell-based
K562 (CML) = test: Cell viability, K562; type: cell-based; conditions: Homo sapiens, 5 nM-5 μM, 72 h, n=3
[8] = test system: Staphylococcus aureus ATCC 33591; test: MIC by micro-broth dilution, S. aureus ATCC 33591; type: cell-based; conditions: ATCC33591; for MIC90: read-out: MIC90; for MIC99: read-out: MIC99
human cancer cells = test: Viability of human cancer cells at 72 hours post-treatment; type: cell-based; conditions: relative to the potency of ONC201; viability of human cancer cells at 72 hours post-treatment
[9] = Mouse tolerability (non-GLP oral single dose / MTD study); type: in vivo
Experimental: ONC212 25 mg/kg represents NOAEL in mouse and rat non-GLP oral single dose studies which is also the efficacious dose in mouse xenograft studies. […].
Dual targeting of DRD2/3 and GPR132/91 represents a novel strategy for anti-cancer efficacy without toxicity. […] […]. […] […].

[10] = test system: human colon cancer xenograft; test: Human colon cancer xenograft in mice; type: in vivo; conditions: single dose, oral or intraperitoneal (FIG. 24)
[11] = test system: human fetal lung fibroblast (MRC-5) cells; conditions: MRC5; nanomolar concentrations (FIG. 22)
[12] = test system: MRC5 lung fibroblasts and Hs27a bone marrow cells; test: Cell viability of normal cells treated with ONC212; type: cell-based; conditions: 5 nM-5 μM, 72 h (FIG. 29B)
HCT116 cells = test: Anticancer efficacy in HCT116 cells; type: cell-based, human
GPR132 = molecular target: T1, GPR132 (Homo sapiens, UniProt Q9UNW8); test: β-arrestin recruitment GPCR reporter assay, GPR132; type: cell-based
T1 sequence (Q9UNW8 1-380): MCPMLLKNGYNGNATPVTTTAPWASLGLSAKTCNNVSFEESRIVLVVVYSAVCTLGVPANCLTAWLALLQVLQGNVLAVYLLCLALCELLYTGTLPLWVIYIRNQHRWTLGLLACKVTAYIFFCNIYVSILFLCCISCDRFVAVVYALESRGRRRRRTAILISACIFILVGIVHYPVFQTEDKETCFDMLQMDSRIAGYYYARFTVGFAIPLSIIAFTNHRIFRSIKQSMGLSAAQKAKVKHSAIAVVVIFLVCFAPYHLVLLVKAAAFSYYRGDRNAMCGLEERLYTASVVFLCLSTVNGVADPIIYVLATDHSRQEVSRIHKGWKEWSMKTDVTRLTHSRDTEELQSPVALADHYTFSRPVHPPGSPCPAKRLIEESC

leukemia cell lines = test: Anti-cancer efficacy in leukemia cell lines; type: cell-based; conditions: 55 leukemia cell lines regardless of subtype (FIG. 26)
MV411 AML xenograft = MV411 AML xenograft model; type: in vivo, athymic nude mice
HL60 = test: Cell viability, HL60 AML cell line; type: cell-based; conditions: Homo sapiens, HL-60, 72 h
[13] = wild type Staphylococcus aureus (ATCC 29213), read-out: MIC
[14] = Staphylococcus aureus, ATCC 29213, 24 hours
[15] = Staphylococcus aureus, ATCC 29213, 24 hours, read-out: MIC95
[16] = Staphylococcus aureus, ATCC 29213, 24 hours, read-out: MIC, Visual
[17] = Staphylococcus aureus (ATCC 33591), methicillin resistant, read-out: MIC
[18] = Staphylococcus aureus, ATCC 33591, 24 hours
[19] = Staphylococcus aureus, ATCC 33591, 24 hours, read-out: MIC95
[20] = Staphylococcus aureus, ATCC 33591, 24 hours, read-out: MIC, Visual

Compound	MIC90 [1]	MIC ([1]; read-out: MIC95)	MIC99 [1]	MIC ([1]; read-out: MIC, Visual)	GPCR activity, DRD2 [3]	anti-cancer efficacy across tumor types [5]	MIC [7, 13]	MIC90 [7, 14]	MIC [7, 15]	MIC99 [7, 14]	MIC [7, 16]	MIC [8, 17]	MIC90 [8, 18]	MIC [8, 19]	MIC99 [8, 18]	MIC [8, 20]	other results
O=C1C2=C(CCN(Cc3ccccc3)C2)N2CCN=C2N1Cc1ccc(F)cc1F [ONC206]	12.5 µg/mL (≈ 30.6 µM)	12.5 µg/mL (≈ 30.6 µM)	25 µg/mL (≈ 61.2 µM)	12.5 µg/mL (≈ 30.6 µM)	improved DRD2 antagonism	demonstrated anti-cancer efficacy	6.25 µg/mL (≈ 15.3 µM)	6.25 µg/mL (≈ 15.3 µM)	6.25 µg/mL (≈ 15.3 µM)	6.25 µg/mL (≈ 15.3 µM)	6.25 µg/mL (≈ 15.3 µM)	12.5 µg/mL (≈ 30.6 µM)	12.5 µg/mL (≈ 30.6 µM)	25 µg/mL (≈ 61.2 µM)	> 100 µg/mL	12.5 µg/mL (≈ 30.6 µM)	IC50 (HFF (Normal Fibroblast); Homo sapiens, Fibroblast, 72 h): > 5000 nM; in vitro toxicity to normal cells (HFF (Normal Fibroblast); Table 12): no in vitro toxicity to normal cells at therapeutic doses; anti-cancer efficacy [2]: nanomolar range in 14 out of 16; also recorded: superior efficacy compared to ONC201 in all cell lines; IC50 [4]: 610 nM; IC50 (MOLM14 AML cells; Homo sapiens, MOLM-14, 5 nM-5 μM, 72 h, n=3): 270 nM; NOAEL ([6]; rat non-GLP oral single dose study): 125 mg/kg; IC50 (MV411 AML cells; Homo sapiens, MV4-11, MV411, 5 nM-5 μM, 72 h, n=3): 200 nM; fold improvement compared to ONC201 in in vitro potency (MV411 AML cells; cell lines of Table 12): up to 20 fold; IC50 (K562 (CML)): 220 nM; Relative Potency* (human cancer cells): A (A Indicates a potency increase of >2-fold of ONC201)
O=C1C2=C(CCN(Cc3ccccc3)C2)N2CCN=C2N1Cc1ccc(C(F)(F)F)cc1 [ONC212]	6.25 µg/mL (≈ 14.2 µM)	12.5 µg/mL (≈ 28.4 µM)	12.5 µg/mL (≈ 28.4 µM)	12.5 µg/mL (≈ 28.4 µM)	does not engage DRD2	demonstrated anti-cancer efficacy	3.13 µg/mL (≈ 7.11 µM)	3.13 µg/mL (≈ 7.11 µM)	3.13 µg/mL (≈ 7.11 µM)	3.13 µg/mL (≈ 7.11 µM)	3.12 µg/mL (≈ 7.09 µM)	3.13 µg/mL (≈ 7.11 µM)	3.13 µg/mL (≈ 7.11 µM)	6.25 µg/mL (≈ 14.2 µM)	100 µg/mL (≈ 227 µM)	3.12 µg/mL (≈ 7.09 µM)	NOAEL ([9]; in vivo, mouse, non-GLP oral single dose study / MTD study): 25 mg/kg; well tolerated dose ([9]; mice): ≥ 225 mg/kg; tumor volume compared to vehicle-treated control [10]: significant reduction of tumor volume; cell death in normal cells [11]: not normal cells; toxicity to normal cells [12]: non-toxic to normal cells at efficacious concentrations; cell death in cancer cells (HCT116 cells; HCT116, nanomolar concentrations (FIG. 22)): induced cell death; IC50 (HCT116 cells; Homo sapiens, HCT-116, HCT116 cells): 10 nM; GPCR activity, GPR132 (GPR132): highly selective agonist; anti-cancer efficacy (leukemia cell lines): nanomolar range; cell viability after 8 hr exposure (MOLM14 AML cells; ONC212 at 250 nM, viability determined at 96 h (FIG. 29C)): robust reduction in cell viability; NOAEL ([6]; rat, in vivo, po): 25 mg/kg; fold more potent compared to ONC201 (MV411 AML cells; AML cell lines in vitro (Table 11)): up to 400 fold; efficacy in AML cells resistant to standard of care cytarabine (MV411 AML cells; MV411, 5 nM-5 μM, 24 h (FIG. 29A)): efficacious; cell viability after 8 hr exposure (MV411 AML cells; MV411, ONC212 at 250 nM, viability determined at 96 h (FIG. 29C)): robust reduction in cell viability; body weight loss or gross observations (MV411 AML xenograft; all ONC212 regimens (FIG. 30C)): None of these ONC212 administration regimens were associated with body weight loss; leukemia xenograft tumor growth (MV411 AML xenograft; biweekly dosing with 25 mg/kg, oral (FIG. 30B)): not efficacious; leukemia xenograft tumor growth (MV411 AML xenograft; oral weekly administration, ONC212 50 mg/kg, ONC201 at similar doses (FIG. 30A)): significantly reduced; leukemia xenograft tumor growth (MV411 AML xenograft; weekly/biweekly dosing with 5 mg/kg, oral (FIG. 30B)): not efficacious; IC50 (HL60): 210 nM
